Test results as given in patent publication US20130184257A1, “PIPERIDINYL-SUBSTITUTED LACTAMS AS GPR119 MODULATORS” (priority 2010, published 2013).

System: modified version of the GPR119 receptor (94% identity to human receptor) stably expressed in HEK-293 cells
Experiment: cAMP Production Assay (LANCE cAMP kit, TR-FRET)
Format: cell-based
Settings: for cAMP production in HEK-293 cells: HEK-293 cells expressing modified GPR119, test compounds 0.2 nM to 10 μM, one-hour incubation at ambient temperature; for Fold over baseline: increase in cAMP relative to basal levels, 1.5-fold or greater = agonist activity
Summary of the method: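 Doxycycline-induced (1 μg/mL, overnight) HEK-293 cells expressing modified GPR119 were thawed, 2000 cells/well, and exposed to compounds (0.2 nM-10 μM final, 0.5% DMSO) for 1 h at ambient temperature in HBSS/HEPES/BSA. cAMP was measured by LANCE TR-FRET against a standard curve. Agonism was defined as ≥1.5-fold over basal.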

SMILES | cAMP production in HEK-293 cells | Fold over baseline
CS(=O)(=O)c1ccc(N[C@H]2CCN(C3CCN(c4noc(-c5ccccn5)n4)CC3)C2=O)c(F)c1 [Example 38, (S)-3-(2-fluoro-4-(methylsulfonyl)-phenylamino)-1-(1-(5-(pyridin-2-yl)-1,2,4-oxadiazol-3-yl)piperidin-4-yl)pyrrolidin-2-one] | 9.0 nmol | 3.5
CC(F)(F)c1nc(N2CCC(N3CC[C@H](Nc4c(F)cc(S(C)(=O)=O)cc4F)C3=O)CC2)no1 [Example 65, (S)-3-((2,6-difluoro-4-(methylsulfonyl)phenyl)amino)-1-(1-(5-(1,1-difluoroethyl)-1,2,4-oxadiazol-3-yl)piperidin-4-yl)pyrrolidin-2-one] | 16.1 nmol | 2.6
CC(C)c1nc(N2CCC(N3CCC[C@H](Nc4c(F)cc(S(C)(=O)=O)cc4F)C3=O)CC2)no1 [Example 12, (S)-3-(2,6-difluoro-4-(methylsulfonyl)phenylamino)-1′-(5-isopropyl-1,2,4-oxadiazol-3-yl)-1,4′-bipiperidin-2-one] | 16.1 nmol | 3.4
CS(=O)(=O)c1cc(F)c(O[C@@H]2CCCN(C3CCN(c4noc(C(F)(F)F)n4)CC3)C2=O)cc1F [Example 67, (R)-3-(2,5-difluoro-4-(methylsulfonyl)phenoxy)-1′-(5-(trifluoromethyl)-1,2,4-oxadiazol-3-yl)-[1,4′-bipiperidin]-2-one] | 43.6 nmol | 3.6
CC(F)(F)c1nc(N2CCC(N3CC[C@H](Nc4ccc(S(C)(=O)=O)cc4F)C3=O)CC2)no1 [Example 49, (S)-1-(1-(5-(1,1-difluoroethyl)-1,2,4-oxadiazol-3-yl)piperidin-4-yl)-3-(2-fluoro-4-(methylsulfonyl)phenylamino)pyrrolidin-2-one] | 20.8 nmol | 2.7
CC(F)(F)c1noc(N2CCC(N3CC[C@H](Oc4cc(F)c(S(C)(=O)=O)cc4F)C3=O)CC2)n1 [Example 63, (S)-3-(2,5-difluoro-4-(methylsulfonyl)phenoxy)-1-(1-(3-(1,1-difluoroethyl)-1,2,4-oxadiazol-5-yl)piperidin-4-yl)pyrrolidin-2-one] | 21.6 nmol | 3.6
CS(=O)(=O)c1cc(F)c(N[C@H]2CCCN(C3CCN(c4nc(C(F)(F)F)no4)CC3)C2=O)c(F)c1 [Example 10, (S)-3-(2,6-difluoro-4-(methylsulfonyl)phenylamino)-1′-(3-trifluoromethyl-1,2,4-oxadiazol-5-yl)-1,4′-bipiperidin-2-one] | 8.3 nmol | 2.9
CS(=O)(=O)c1ccc(N[C@H]2CCN(C3CCN(c4noc(C(F)F)n4)CC3)C2=O)cn1 [Example 58] | 15.8 nmol | 2.6
CC(C)c1noc(N2CCC(N3CC[C@H](Oc4cc(F)c(S(C)(=O)=O)cc4F)C3=O)CC2)n1 [Example 1, (S)-3-(2,5-difluoro-4-(methylsulfonyl)phenoxy)-1-(1-(3-isopropyl-1,2,4-oxadiazol-5-yl)piperidin-4-yl)pyrrolidin-2-one] | 25.0 nmol | 4.6
CS(=O)(=O)c1ccc(O[C@H]2CCN(C3CCN(c4noc(C(F)(F)F)n4)CC3)C2=O)cn1 [Example 56, (S)-3-((6-(methylsulfonyl)pyridin-3-yl)oxy)-1-(1-(5-(trifluoromethyl)-1,2,4-oxadiazol-3-yl)piperidin-4-yl)pyrrolidin-2-one] | 21.1 nmol | 3.3
CS(=O)(=O)c1ccc(N[C@H]2CCN(C3CCN(c4noc(C5CC5)n4)CC3)C2=O)c(F)c1 [Example 45, (S)-1-(1-(5-cyclopropyl-1,2,4-oxadiazol-3-yl)piperidin-4-yl)-3-(2-fluoro-4-(methylsulfonyl)-phenylamino)-pyrrolidin-2-one] | 13.3 nmol | 5.3
CS(=O)(=O)c1ccc(N[C@H]2CCCN(C3CCN(c4noc(C(F)(F)F)n4)CC3)C2=O)c(F)c1 [Example 29, (S)-3-(2-fluoro-4-(methylsulfonyl)phenylamino)-1′-(5-(trifluoromethyl)-1,2,4-oxadiazol-3-yl)-1,4′-bipiperidin-2-one] | 47.6 nmol | 3.0
